The structures appear in SMILES notation. Like-named read-outs stand apart in the source and are kept apart here. A value given as a limit tells only on which side of the number the result lay.

In patent US10618890B2, “Benzimidazole sulfonamide derivatives as inverse agonists of retinoid-related orphan receptor gamma (ROR gamma (T))” (GALDERMA RESEARCH & DEVELOPMENT, priority 2014, dated 2020) one finds IC50 data, which are given here for 21 compounds.

The target in experiment [1] is T1, hRORg (Homo sapiens, UniProt P51449).
T1 construct: expressed in transfected cells; host or cells: HG5LN (HeLa line with a GAL4-driven luciferase reporter)
T1 sequence (P51449 269-508 limits assumed): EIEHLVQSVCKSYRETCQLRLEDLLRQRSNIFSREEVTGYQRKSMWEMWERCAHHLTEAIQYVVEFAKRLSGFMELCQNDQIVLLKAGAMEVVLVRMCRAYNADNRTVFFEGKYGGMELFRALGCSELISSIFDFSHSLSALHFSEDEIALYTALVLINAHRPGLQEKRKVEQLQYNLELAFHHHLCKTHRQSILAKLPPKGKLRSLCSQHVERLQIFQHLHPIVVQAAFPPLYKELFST
The experiment in a line: GAL4-RORγ transactivation (luciferase reporter, HG5LN HeLa line). As to conditions: HG5LN cells, 18 hours incubation, luciferase luminescence. The class given is cell-based. The text has this:
GAL4-RORγ Transactivation
The RORγ transactivation model was developed from the line HG5LN, which is a HeLa line that stably expresses a luciferase reporter gene controlled by a pentamer of the GAL4 recognition domain of yeast and of a β-globin promoter. The HG5LN line was stably transfected by the DNA-binding domain (DBD) of GAL4 fused to the ROR gamma ligand-binding domain (LBD). Molecules that inhibit the ROR gamma constitutive activity reduce the luciferase expression, thus leading to a reduction in the emitted luminescence.
The cells are seeded in 384-well plates (5000 cells in 45 μL/well of culture medium containing 10% fetal calf serum) and incubated for 4 hours at 37° C., 5% CO2. 5 μL of the test molecules (compounds described in the tables described above) are then added to each well and the plates are incubated for 18 hours at a temperature of 37° C. under 5% of CO2. 20 μL of luciferase substrate (Promega) are added to each well and the luminescence emitted is read by a microplate reader.
The luminescence units (“RLU”) are normalized by positive controls (“POS” containing a saturated concentration of N-(2,2,2-trifluoroethyl)-N-[4-[2,2,2-trifluoro-1-hydroxy-1-(trifluoromethyl)ethyl]phenyl]benzenesulfonamide) and negative controls (“NEG” containing DMSO): % inhibition=((RLU-NEG)*100)/(POS-NEG). The IC50 values are calculated from a 4-parameter logistic model using the XLFit software (IDBS).

Experiment [2] relates to IL-17A secretion by CD4+ cells. The experiment in a line: IL-17A secretion by CD4+ cells (HTRF). The class given is cell-based. As to conditions: human CD4+ cells activated with anti-CD3 and anti-CD28, 4 days of incubation, IL-17A by HTRF, read-out: IC50 hCD4/IL17. The protocol: This model allows measurement of the effect of inhibitors on IL-17A secretion by CD4+ cells. The cells are frozen CD4+ cells (STEMCELL, #70026), isolated from peripheral human blood and activated with anti-CD3 and anti-CD28 antibodies. The amount of IL-17A secreted is measured by the TR-FRET (kit HTRF® Human Interleukin 17A (Cisbio, #64H17PEC)) technology.
The cells are rapidly thawed, resuspended in their culture medium (RPMI inactivated 10% FCS) supplemented with soluble anti-CD28 antibodies and seeded (100 000 cells/well) in 96-well plates precoated with anti-CD3 antibodies. The cells are then treated with the ranges of inhibitors to be tested (from 1000 nM to 0.05 nM, 0.1% DMSO). After 4 days of incubation, the HTRF signal is measured using a microplate reader (excitation=337 nm, λemission=620/665 nm). The ratios obtained (665/620) are normalized relative to the positive control (cells activated with anti-CD3 and anti-CD28, 0.1% DMSO). The IC50 values are calculated from a 4-parameter logistic model using the XLFit software (IDBS).
A general note: In TR-FRET formats the signal depends on donor and acceptor labels being close together.

The compound `CCc1ccc(N(CC(C)C)S(=O)(=O)c2ccc3c(c2)n(CC2CCOCC2)c(=O)n3C)cc1` [Compound 1, 1-methyl-2-oxo-3-(tetrahydropyran-4-ylmethyl)-2,3-dihydro-1H-benzimidazole-5-sulfonic acid (4-ethylphenyl)isobutylamide] showed an IC50 in experiment [1] of more than 1000 nM.
As to `CCc1ccc(N(CC(C)C)S(=O)(=O)c2ccc3c(c2)[nH]c(=O)n3CC2CCOCC2)cc1` [Compound 2, 2-oxo-1-(tetrahydropyran-4-ylmethyl)-2,3-dihydro-1H-benzimidazole-5-sulfonic acid (4-ethylphenyl)isobutylamide], the IC50 in experiment [1] is less than 100 nM; in experiment [2] (Homo sapiens, 96 h), less than 100 nM.
On to `CCc1ccc(N(CC(C)C)S(=O)(=O)c2ccc3[nH]c(=O)n(CC4CCOCC4)c3c2)cc1` [Compound 3, 2-oxo-3-(tetrahydropyran-4-ylmethyl)-2,3-dihydro-1H-benzimidazole-5-sulfonic acid (4-ethylphenyl)isobutylamide], for which the IC50 is 100 to 1000 nM in experiment [1] and less than 100 nM in experiment [2] (Homo sapiens, 96 h).
Turning to `CCc1ccc(N(CC(C)C)S(=O)(=O)c2ccc3c(c2)[nH]c(=O)n3CC2(C)CCOCC2)cc1` [Compound 4, 1-(4-methyltetrahydropyran-4-ylmethyl)-2-oxo-2,3-dihydro-1H-benzimidazole-5-sulfonic acid (4-ethylphenyl)isobutylamide], the IC50 is less than 100 nM in experiment [1] and less than 100 nM in experiment [2] (Homo sapiens, 96 h).
Consider `CCc1ccc(N(CC(C)C)S(=O)(=O)c2ccc3c(c2)[nH]c(=O)n3CC2(F)CCOCC2)cc1` [Compound 5, 1-(4-fluorotetrahydropyran-4-ylmethyl)-2-oxo-2,3-dihydro-1H-benzimidazole-5-sulfonic acid (4-ethylphenyl)isobutylamide], for which the IC50 in experiment [1] is less than 100 nM; in experiment [2] (Homo sapiens, 96 h), less than 100 nM.
In experiment [1], `CCc1ccc(N(CC(C)C)S(=O)(=O)c2ccc3c(c2)[nH]c(=O)n3C[C@H]2[C@@H]3COC[C@@H]32)cc1` [Compound 6, 1-[(1R,5S,6S)-1-(3-oxabicyclo[3.1.0]hex-6-yl)methyl]-2-oxo-2,3-dihydro-1H-benzimidazole-5-sulfonic acid (4-ethylphenyl)isobutylamide] gave an IC50 of less than 100 nM.
With `CCc1ccc(N(CC(C)C)S(=O)(=O)c2ccc3c(c2)[nH]c(=O)n3CC2COC2)cc1` [Compound 7, 1-oxetan-3-ylmethyl-2-oxo-2,3-dihydro-1H-benzimidazole-5-sulfonic acid (4-ethylphenyl)isobutylamide], the IC50 was less than 100 nM in experiment [1] and less than 100 nM in experiment [2] (Homo sapiens, 96 h).
As to `CCc1ccc(N(CC(C)C)S(=O)(=O)c2ccc3c(c2)[nH]c(=O)n3CC2COC(=O)O2)cc1` (stereo not shown) [Compound 8, 2-oxo-1-(2-oxo[1,3]dioxolan-4-ylmethyl)-2,3-dihydro-1H-benzimidazole-5-sulfonic acid (4-ethylphenyl)isobutylamide], in experiment [1], the IC50 is less than 100 nM.
The same measure, in the same setting: the same measure for `CCc1ccc(N(CC(C)C)S(=O)(=O)c2ccc3c(c2)[nH]c(=O)n3CC2CNC(=O)O2)cc1` (stereo not shown) [Compound 9, 2-oxo-1-(2-oxooxazolidin-5-ylmethyl)-2,3-dihydro-1H-benzimidazole-5-sulfonic acid (4-ethylphenyl)isobutylamide]: more than 1000 nM.
On to `CCc1ccc(N(CC(C)C)S(=O)(=O)c2ccc3c(c2)[nH]c(=O)n3Cc2ccncc2)cc1` [Compound 10, 2-oxo-1-pyridin-4-ylmethyl-2,3-dihydro-1H-benzimidazole-5-sulfonic acid (4-ethylphenyl)isobutylamide], for which the IC50 in experiment [1] is 100 to 1000 nM; in experiment [2] (Homo sapiens, 96 h), less than 100 nM.
In experiment [1], `CCc1ccc(N(CC(C)C)S(=O)(=O)c2ccc3c(c2)[nH]c(=O)n3C2CCOCC2)cc1` [Compound 11, 2-oxo-1-(tetrahydropyran-4-yl)-2,3-dihydro-1H-benzimidazole-5-sulfonic acid (4-ethylphenyl)isobutylamide] returned an IC50 of more than 1000 nM.
In experiment [1], `CCc1ccc(N(CC(C)C)S(=O)(=O)c2ccc3c(c2)[nH]c(=O)n3C2CCN(C(=O)OC(C)(C)C)CC2)cc1` [Compound 12, tert butyl ester of 4-{5-[(4-ethylphenyl)isobutylsulfamoyl]-2-oxo-2,3-dihydrobenzimidazol-1-yl}piperidine-1-carboxylic acid] returned an IC50 of more than 1000 nM.
Still for that read-out and setting: for `CCc1ccc(N(CC(C)C)S(=O)(=O)c2ccc3c(c2)[nH]c(=O)n3C2CCNCC2)cc1` [Compound 13, 2-oxo-1-piperidin-4-yl-2,3-dihydro-1H-benzimidazole-5-sulfonic acid (4-ethylphenyl)isobutylamide] the value was more than 1000 nM; for `CCc1ccc(N(CC(C)C)S(=O)(=O)c2ccc3c(c2)[nH]c(=O)n3C2CCN(S(C)(=O)=O)CC2)cc1` [Compound 14, 1-(1-methanesulfonylpiperidin-4-yl)-2-oxo-2,3-dihydro-1H-benzimidazole-5-sulfonic acid (4-ethylphenyl)isobutylamide], more than 1000 nM.
For `CCc1ccc(N(C2CCCC2)S(=O)(=O)c2ccc3c(c2)[nH]c(=O)n3CC2CCOCC2)cc1` [Compound 15, 2-oxo-1-(tetrahydropyran-4-ylmethyl)-2,3-dihydro-1H-benzimidazole-5-sulfonic acid (4-ethylphenyl)cyclopentylamide], the IC50 in experiment [1] is less than 100 nM; in experiment [2] (Homo sapiens, 96 h) it was less than 100 nM.
On to `CCc1ccc(N(C(CC)CC)S(=O)(=O)c2ccc3c(c2)[nH]c(=O)n3CC2CCOCC2)cc1` [Compound 16, 2-oxo-1-(tetrahydropyran-4-ylmethyl)-2,3-dihydro-1H-benzimidazole-5-sulfonic acid (4-ethylphenyl)(1-ethylpropyl)amide], for which the IC50 in experiment [1] is less than 100 nM; in experiment [2] (Homo sapiens, 96 h) it was less than 100 nM.
`Cc1ccc(N(CC(C)C)S(=O)(=O)c2ccc3c(c2)[nH]c(=O)n3CC2CCOCC2)c(C)c1` [Compound 17, 2-oxo-1-(tetrahydropyran-4-ylmethyl)-2,3-dihydro-1H-benzimidazole-5-sulfonic acid (2,4-dimethylphenyl)isobutylamide]: the IC50 is less than 100 nM in experiment [1] and less than 100 nM in experiment [2] (Homo sapiens, 96 h).
Consider `Cc1ccc(N(C2CCCC2)S(=O)(=O)c2ccc3c(c2)[nH]c(=O)n3CC2CCOCC2)c(C)c1` [Compound 18, 2-oxo-1-(tetrahydropyran-4-ylmethyl)-2,3-dihydro-1H-benzimidazole-5-sulfonic acid cyclopentyl(2,4-dimethylphenyl)amide], for which the IC50 is less than 100 nM in experiment [1] and less than 100 nM in experiment [2] (Homo sapiens, 96 h).
In the case of `CCC(CC)N(c1ccc(C)cc1C)S(=O)(=O)c1ccc2c(c1)[nH]c(=O)n2CC1CCOCC1` [Compound 19, 2-oxo-1-(tetrahydropyran-4-ylmethyl)-2,3-dihydro-1H-benzimidazole-5-sulfonic acid (2,4-dimethylphenyl)(1-ethylpropyl)amide], the IC50 is less than 100 nM in experiment [1] and less than 100 nM in experiment [2] (Homo sapiens, 96 h).
For `CCc1ccc(N(CC(C)C)S(=O)(=O)c2ccc3c(c2)[nH]c(=O)n3CC2CCS(=O)(=O)CC2)cc1` [Compound 20, 1-(1,1-dioxohexahydro-1λ^6-thiopyran-4-ylmethyl)-2-oxo-2,3-dihydro-1H-benzimidazole-5-sulfonic acid (4-ethylphenyl)isobutylamide], the IC50 in experiment [1] is less than 100 nM; in experiment [2] (Homo sapiens, 96 h) it was less than 100 nM.
Regarding `CCc1ccc(N(CC(C)C)S(=O)(=O)c2ccc3[nH]c(=O)n(CC4CCOCC4)c3c2)cc1` [Compound 21, 2-oxo-3-(tetrahydropyran-4-ylmethyl)-2,3-dihydro-1H-benzimidazole-5-sulfonic acid (4-ethylphenyl)isobutylamide], the IC50 in experiment [1] and in experiment [2] was 100 to 1000 nM throughout.
